The values below come from patent EP0564466B1, “LHRH-ANTAGONISTS” (ASTA Medica Aktiengesellschaft, priority 1990, dated 1992).

Non-standard residues stand in square brackets, D forms with d. Residues, ends and D or L forms follow the SMILES beside them. dPhe(4-Cl) = N[C@H](Cc1ccc(Cl)cc1)C(=O)O; d2Nal = N[C@H](Cc1ccc2ccccc2c1)C(=O)O; d3Pal = N[C@H](Cc1cccnc1)C(=O)O A value given as a limit tells only on which side of the number the result lay.

The test system of test [1] is rat ovulation. Briefly: Corbin's rat antiovulation method (antiovulatory activity, AOA). As to conditions: for % AOA/µg 0.25: 0.25 µg; for % AOA/µg 0.25 / % AOA/µg 0.5 / % AOA/µg 1.0: in saline, given at noon of proestrus, female SD rats; for % AOA/µg 0.5: 0.5 µg; for % AOA/µg 1.0: 1.0 µg. The class given is in vivo, SD rats. The protocol:
Corbin's rat antiovulatlon method is used. The healthy, adult, female SD rats (BW 200-250 g) are used in this experiment. All animals are maintained at 22-24 °C and on 14 h/10 h (light/dark) schedule. They are given standard food, and water ad libitum. The rats showing at least two consecutive 4-day estrous cycles in vaginal smear examination can be used in this experiment. […] The rats are sacrificed next day, their oviduct of two sides are examed under a dissecting microscope to determine the ovum number. The rats were divided into several groups according to the dosing, each group consists of about 10 rats, and the control group in which the rats are given equal amount of saline consists of 9-10 rats. The antiovulatory activity (AOA) is shown in the following equation: AOA=(number of unovulated rats)/(Total number of treated rats)X 100 % [formula]

Test [2] deals with rat mast cell. Briefly: Histamine releasing test (HRT) in vitro. The class given is cell-based, SD rats. The settings on record: in vitro histamine release from rat peritoneal mast cells, 15 min at 37 °C. The protocol: The healthy, adult, male SD rats (BW 200-250 g) housing in the above same conditions are used in this experiment. After anesthetized by CO2 the peritoneal cavity is washed with 50 ml of PIPES AC medium containing 20 units of heparin. Following centrifugation at 200xg for 8 min at 4 °C, cells are washed again and finally resuspended to a concentration of 8 to 24x10^5 total leucocyted/ml in PIPAS AC. This suspension contains approximately 5-10 % mast cells. Washed cells are used immediately after collection and are prewarmed for 5 min at 37 °C prior to pipetting 0,3 ml aliquots into polystyrene tubes containing 0,3 ml of diluted peptide. The mixtures are incubated for 15 min at 37 °C and the reaction stopped by centrifugation at 400 xg for 15 min at 4 °C. The supernatans are assayed for histamine content by manual fluorometric assay method after successively extraction with n-butanol and n-heptane. The histamine content can be obtained from the histamine standard curve (see below). The percentage of histamine release can be calculted from the following equation: Histamine release(%)=(E-B)/(C-B)X 100 % [formula] where E is the fluorometric reading of experimental sample, B is the fluorometric reading of samples with cells and buffer only, and C ist the fluorometric reading of "complete" (cells treated with HCIO4).
The standard curve can be obtained by plotting the OD values on a fluorometer at 350 nm/450 nm (activation/fluorescent) against the concentrations of serially diluted solution of accurately weighted histamine hydrochloride. The relative parameter r of the histamine standard curve can be 0.9998, and the lowest detectable concentration of histamine is 0,5 ng/ml.
The ED50 value of peptide can be gotten from the dose response curves obtained by plotting the histamine release versus the peptide concentration on semilogarithmic paper.
All peptide samples should be tested with mast cells from a minimum of 3 different rats.

For test [3], the system named is rat mast cell. As to conditions: neuropeptide substance P; cited from earlier work.

As to `CC(=O)N[C@H](Cc1ccc2ccccc2c1)C(=O)N[C@H](Cc1ccc(Cl)cc1)C(=O)N[C@H](Cc1cccnc1)C(=O)N[C@@H](CO)C(=O)N[C@@H](CCCNC(=N)N)C(=O)N[C@H](Cc1cccnc1)C(=O)N[C@@H](CC(C)C)C(=O)N[C@@H](CCCNC(=N)N)C(=O)N1CCC[C@H]1C(=O)N[C@H](C)C(N)=O` [compound 1, [NAc-D2Nal^1, DpClphe^2, D3Pal^3, Ser^4, Arg^5, D3Pal^6, Leu^7, Arg^8, Pro^9, DAla^10]NH2] (Ac-[d2Nal][dPhe(4-Cl)][d3Pal]SR[d3Pal]LRP[dA]-NH2), the AOA turned out to be 100% in test [1] (0,5 µg, corn oil); 60% in test [1] (0,12 µg, corn oil); 85% in test [1] (0,25 µg, corn oil). Moreover, the “% AOA/µg 0.25” value in test [1] stood at 50%. Further, in test [1], the “% AOA/µg 0.5” value is given as 75%. Moreover, in test [1], the “% AOA/µg 1.0” value worked out at 100%. The “ED50 for AOA” value in test [1] (corn oil) is ≤ 0,125 µg. For the same compound, the figures for the “HRA (µg/ml) ED50 ± SEM” value in test [2] and in test [2] (listed as IV) were 3.5 ± 0.38 µg/mL and 3,5 µg/ml, respectively.
For the compound `CC(=O)N[C@H](Cc1ccc2ccccc2c1)C(=O)N[C@H](Cc1ccc(Cl)cc1)C(=O)N[C@H](Cc1ccccc1)C(=O)N[C@@H](CO)C(=O)N[C@@H](CCCNC(=N)N)C(=O)N[C@H](Cc1cccnc1)C(=O)N[C@@H](CC(C)C)C(=O)N[C@@H](CCCNC(=N)N)C(=O)N1CCC[C@H]1C(=O)N[C@H](C)C(N)=O` [compound 2, [NAc-D2Nal^1, DpClPhe^2, DPhe^3, Ser^4, Arg^5, D3Pal^6, Leu^7, Arg^8, Pro^9, DAla^10]NH2] (Ac-[d2Nal][dPhe(4-Cl)][dF]SR[d3Pal]LRP[dA]-NH2), in test [1], the “% AOA/µg 0.25” value was 29%, the “% AOA/µg 0.5” value is given as 60% and the “% AOA/µg 1.0” value is on record as 100%. Further, in test [2], the “HRA (µg/ml) ED50 ± SEM” value amounted to 7.4 ± 0.98 µg/mL.
On to “[Arg^1, Pro^2, Lys^3, Pro^4, Gln^5, Gln^6 Phe^7, Phe^8, Gly^9, Leu^10, Met^11]NH2 [substance P]”, for which the “ED50 for HRA” value in test [3] was 5 to 15 µM.
Turning to “[NAc-D2Nal^1, DpClPhe^2, D3Pal^3 Ser4, Tyr5, D3Pal6, Leu7, Arg8, Pro9, DAla10]NH2 [III]”, the AOA in test [1] (1 µg, corn oil) was 83%; in test [1] (3 µg, corn oil), 100%. Besides, the “HRA (µg/ml) ED50 ± SEM” value in test [2] was determined as 9.8 µg/mL.
As to “[NAc-D2Nal^1, DpClPhe^2, D3Pal^3, Ser^4, Tyr^5, DArg^6, Leu^7, Arg^8, Pro^9, DAla^10]NH2 [II, reference compound]”, the AOA in test [1] (0,5 µg, corn oil) was determined as 100%; in test [1] (0,25 µg, corn oil), 57%.
With “[NAc-D2Nal^1, DpClPhe^2, DPhe^3, Ser^4, Tyr^5, D3Pal^6, Leu^7, Arg^8, Pro^9, DAla^10]NH2 [V']”, the “% AOA/µg 1.0” value in test [1] worked out at 100%. For the same compound, the “HRA (µg/ml) ED50 ± SEM” value in test [2] is reported as 7,4 µg/ml.
“[NAc-D2Nal^1, DpClphe^2, D3Pal^3, Ser^4, Mop^5, D3Pal^6, Leu^7, Arg^8, Pro^9, DAla^10]-NH2 [compound 13]”: the “% AOA/µg 0.5” value in test [1] was found to be 25%. Also, the “% AOA/µg 1.0” value in test [1] is reported as 100%. In addition, the “HRA (µg/ml) ED50 ± SEM” value was 14.7 ± 2.70 µg/mL in test [2] and 14,7 µg/ml in test [2] (listed as VII).
